In US20260250257A1, “ANTIBACTERIAL AND SYNERGISTIC ACTIVE COMPOUND AND USE THEREOF” (EAST CHINA UNIVERSITY OF SCIENCE AND TECHNOLOGY, priority 2023, published 2026):
Converted amounts (≈) assume the structure as drawn.

How the values were obtained:
Format in all cases: cell-based
[1] = tested on: ATCC13883 strain (Klebsiella pneumoniae); assay: Broth microdilution, antibacterial activity of the compound used alone; details: for MIC: read-out: Antibacterial activity of the compound of Formula I, ATCC13883
From the text: (§1) The broth microdilution method was used to test the antibacterial effects of the compounds of the present invention against various Gram-negative bacterial strains when used alone.

[2] = tested on: ATCC25922 strain (Escherichia coli); assay: as above; details: for MIC: read-out: Antibacterial activity of the compound of Formula I, ATCC25922
From the text: as §1

[3] = tested on: ATCC19606 strain (Acinetobacter baumannii); assay: as above; details: for MIC: read-out: Antibacterial activity of the compound of Formula I, ATCC19606
From the text: as §1

[4] = tested on: ATCC9027 strain (Pseudomonas aeruginosa); assay: as above; details: for MIC: read-out: Antibacterial activity of the compound of Formula I, ATCC9027
From the text: as §1

[5] = tested on: ATCC13883 strain (Klebsiella pneumoniae); assay: Checkerboard antibacterial synergistic activity test with polymyxin E (FIC); set-up: key: FIC≤0.5 synergy; 0.5–1 additive; 1–2 indifferent; ≥2 antagonism; details: combined with polymyxin E
Outline: (§2)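 Polymyxin E was diluted in MH broth to 16–0.015 μg/ml and the test compound to 256–4 μg/ml (two-fold series, pre-mixing concentrations), combined checkerboard-style in 96-well plates with bacterial suspension and blank controls, and incubated at 37° C. for 16 h. FIC ≤0.5 was scored synergistic, >0.5 to <1 additive, 1–2 indifferent, ≥2 antagonistic.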

[6] = tested on: ATCC25922 strain (Escherichia coli); assay: as above; set-up: key: FIC≤0.5 synergy; 0.5–1 additive; 1–2 indifferent; ≥2 antagonism; details: combined with polymyxin E
Outline: as §2

[7] = tested on: ATCC19606 strain (Acinetobacter baumannii); assay: as above; set-up: key: FIC≤0.5 synergy; 0.5–1 additive; 1–2 indifferent; ≥2 antagonism; details: combined with polymyxin E
Outline: as §2

[8] = tested on: ATCC9027 strain (Pseudomonas aeruginosa); assay: as above; set-up: key: FIC≤0.5 synergy; 0.5–1 additive; 1–2 indifferent; ≥2 antagonism; details: combined with polymyxin E
Outline: as §2

Row | MIC [1] [µg/mL] | MIC [2] [µg/mL] | MIC [3] [µg/mL] | MIC [4] [µg/mL] | SMILES | Antibacterial activity of the compound of Formula I, ATCC13883 [1] [µg/mL] | Antibacterial activity of the compound of Formula I, ATCC25922 [2] [µg/mL] | Antibacterial activity of the compound of Formula I, ATCC19606 [3] [µg/mL] | Antibacterial activity of the compound of Formula I, ATCC9027 [4] [µg/mL] | Synergistic activity (FIC value) ATCC13883 [5] | Synergistic activity (FIC value) ATCC25922 [6] | Synergistic activity (FIC value) ATCC19606 [7] | Synergistic activity (FIC value) ATCC9027 [8]
1 |  |  |  |  | Fc1ccc(-c2csc(N=C3NCCCN3)n2)c(Oc2ccc(Cl)cc2Cl)c1 [Compound I-151] | 256 | 256 | 256 | 256 | 0.16 | 0.18 | 0.03 | 0.28
2 |  |  |  |  | Clc1ccc(Oc2ccccc2-c2c[nH]c(N=C3NCCCN3)n2)c(Cl)c1 [Compound I-146] | 256 | 256 | 256 | 256 | 0.09 | 0.14 | 0.31 | 0.06
3 | 256 (≈ 784 µM) | 256 (≈ 784 µM) | 256 (≈ 784 µM) | 256 (≈ 784 µM) | NC(N)=Nc1nc(-c2ccc(Sc3ccccc3)cc2)cs1 [Compound I-107] |  |  |  |  | 1.25 | 0.53 | 1.25 | 1.25
4 |  |  |  |  | CSc1cc2c(Cl)cccn2c1-c1c[nH]c(N=C(N)N)n1 [Compound I-129] | 256 | 256 | 256 | 256 | 0.09 | 0.14 | 0.31 | 0.06
5 | 256 (≈ 825 µM) | 256 (≈ 825 µM) | 256 (≈ 825 µM) | 256 (≈ 825 µM) | NC(N)=Nc1nc(-c2ccccc2Oc2ccccc2)cs1 [Compound I-1, 2-(4-(2-phenoxyphenyl)thiazol-2-yl)guanidine] |  |  |  |  | 0.53 | 1.25 | 1.25 | 0.52
6 |  |  |  |  | Fc1sc(N=C2NCCCN2)nc1-c1cc(Br)cc(Br)c1 [Compound I-177] | 256 | 256 | 256 | 256 | 1.25 | 0.63 | 0.5 | 1.25
7 |  |  |  |  | CS(=O)(=O)Nc1cccc(-c2csc(N=C(N)N)n2)c1 [Compound I-32] | 256 | 256 | 256 | 256 | 1.25 | 1.25 | 0.25 | 0.52
8 | 64 (≈ 232 µM) | 32 (≈ 116 µM) | 256 (≈ 926 µM) | 16 (≈ 57.9 µM) | NC(N)=Nc1nc(C2CC3CC4CC3CC2C4)cs1 (centres unmarked) [Compound I-117] |  |  |  |  | 0.25 | 0.63 | 0.5 | 1.25
9 |  |  |  |  | CSc1cc2cc(C)ccn2c1-c1csc(N=C(N)N)n1 [Compound I-125] | 256 | 256 | 256 | 256 | 0.16 | 0.18 | 0.03 | 0.28
10 |  |  |  |  | NC(N)=Nc1nc(-c2cccc(NC(=O)Nc3ccc(Cl)cc3Cl)c2)c(Cl)s1 [Compound I-133] | 256 | 256 | 256 | 256 | 0.19 | 0.04 | 0.38 | 0.04
11 |  |  |  |  | NC(N)=Nc1nc(-c2cccc(N3CCOCC3)c2)cs1 [Compound I-120] | 256 | 256 | 256 | 256 | 0.28 | 0.75 | 1.25 | 0.25
12 |  |  |  |  | FC(F)(F)c1cc(-c2nc(N=C3NCCCN3)sc2Cl)ccc1Cl [Compound I-186] | 256 | 256 | 256 | 256 | 0.19 | 0.52 | 0.13 | 1.25
13 |  |  |  |  | NC(N)=Nc1nc(-c2ccccc2Cl)c[nH]1 [Compound I-36] | 128 | 128 | 256 | 64 | 0.31 | 0.56 | 0.25 | 0.5
14 |  |  |  |  | c1ccn2c(-c3coc(N=C4NCCCN4)n3)ccc2c1 [Compound I-189] | 256 | 256 | 256 | 256 | 0.25 | 0.5 | 0.28 | 0.63
15 |  |  |  |  | NC(N)=Nc1nc(-c2cccc(Oc3ccc(I)cc3I)c2)cs1 [Compound I-97] | 256 | 256 | 256 | 256 | 0.13 | 0.2 | 0.04 | 0.28
16 | 256 (≈ 983 µM) | 256 (≈ 983 µM) | 256 (≈ 983 µM) | 256 (≈ 983 µM) | Cc1cc(C)c(-c2csc(N=C(N)N)n2)c(C)c1 [Compound I-51] |  |  |  |  | 1.25 | 0.5 | 1.25 | 1.25
17 |  |  |  |  | CC(C)=CCOc1cc(-c2nc(N=C(N)N)oc2Cl)cc(OCC=C(C)C)c1O [Compound I-50] | 256 | 256 | 256 | 256 | 0.16 | 0.26 | 0.13 | 0.31
18 | 256 (≈ 844 µM) | 256 (≈ 844 µM) | 256 (≈ 844 µM) | 256 (≈ 844 µM) | CSc1cc2ccccn2c1-c1csc(N=C(N)N)n1 [Compound I-123] |  |  |  |  | 0.09 | 0.14 | 0.31 | 0.06
19 |  |  |  |  | NC(N)=Nc1nc(-c2ccc(I)cc2)cs1 [Compound I-33] | 256 | 256 | 256 | 256 | 0.25 | 0.5 | 0.28 | 0.63
